Seven compounds from patent US5401743A, “Aminoalkyl-substituted 2-amino-5-mercaptothiadiazoles the preparation and use thereof” (BASF Aktiengesellschaft, priority 1991, dated 1995) can be followed below.

This assay deals with T1, dopamine D2 receptor (Rattus norvegicus, UniProt P61169).
T1 construct: Striata from rats (Sprague Dawley, Charles River) were homogenized immediately after removal; from tissue; host or cells: rat striatum (Sprague Dawley, Charles River), membranes
Description: Receptor binding assay: affinity for the dopamine D2 receptor (3H-ADTN displacement, rat striatal membranes). More on the design: species or system rat (Sprague Dawley). The protocol:
The effects of the novel compounds can be shown in the receptor binding assay as follows:
Striata from rats (Sprague Dawley, Charles River) were homogenized immediately after removal in 0.32M sucrose solution (0° C.). The homogenate was filtered through gauze, the filtrate was centrifuged at 1000 xg (5 min at 4° C.) and the resulting supernatant was centrifuged at 40000 xg (4° C., 10 min). The residue (membranes) was taken up in incubation buffer (50 mM tris-HCl, 1 mM MgCl2 and 0.1% ascorbic acid, pH 7.4) and incubated at 37° C. for 20 min. The residue was subsequently washed 2× with incubation buffer by resuspension and recentrifugation. The membranes were frozen in portions in liquid nitrogen.
The assay mixtures (1 ml) were composed of membranes (380 μg of protein), 1 nM ^3 H-ADTN (NEN, Dreieich Germany, specific radioactivity 1.4 TBq/mmol) and 0.1 μM SCH 23390 (total binding) or a) with the addition of 50 nM spiperone (non-specific binding) or b) with test substance. The mixtures were prepared in triplicate.
After the incubation (40 min at 25° C.) the mixtures were filtered through glass fiber filters (Whatman GF/B) and briefly washed with ice-cold washing buffer (Tris-HCl, pH 7.4). The radioactivity retained on the filters was determined by liquid scintillation counting. The non-specific binding comprised about 40-50% of the total binding.
The evaluation of the competition plots and the determination of the dissociation constant took place by iterative non-linear regression analysis based on the "ligand" program (Muson and Rodbard: Anal. Biochem. 107 (1980) 220).
Affinity of the test substances for the dopamine D2 receptor

[1] abbreviates: rat striatal membranes, 1 nM 3H-ADTN, 0.1 μM SCH 23390, 40 min at 25° C., pH 7.4, non-specific binding with 50 nM spiperone, read-out: Ki (affinity of the test substances for the dopamine D2 receptor).

What is called Ki is the dissociation constant of the complex between target and ligand, obtained from inhibition or displacement.

Structures can show the parent of a compound that is named as a salt. Where two headings read alike, the source gives them in different places.

T1 sequence (P61169 whole entry): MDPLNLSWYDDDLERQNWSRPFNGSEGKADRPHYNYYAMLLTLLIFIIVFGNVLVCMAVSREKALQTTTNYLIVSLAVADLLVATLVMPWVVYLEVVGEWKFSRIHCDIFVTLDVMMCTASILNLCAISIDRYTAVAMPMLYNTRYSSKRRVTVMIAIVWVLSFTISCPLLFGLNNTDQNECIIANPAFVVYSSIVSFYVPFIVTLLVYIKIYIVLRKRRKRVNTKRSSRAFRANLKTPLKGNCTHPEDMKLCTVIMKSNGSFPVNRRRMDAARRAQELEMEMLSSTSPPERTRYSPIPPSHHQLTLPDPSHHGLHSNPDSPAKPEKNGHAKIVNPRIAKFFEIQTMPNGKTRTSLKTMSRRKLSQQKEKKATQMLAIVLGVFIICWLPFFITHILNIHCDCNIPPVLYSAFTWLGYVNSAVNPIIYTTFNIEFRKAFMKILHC

With `CCOc1ccccc1N1CCN(CCSc2nnc(N)s2)CC1` [Example 11, 2-Amino-5-[2-(4-(2-ethoxyphenyl)piperazinyl)ethylthio]-1,3,4-thiadiazole hydrochloride], the Ki under setting [1] was 0.015 µM. In the case of `Nc1nnc(SCCCN2CC=C(c3ccccc3)CC2)s1` [Example 4, 2-Amino-5-[3-(4-phenyl-1,2,3,6-tetrahydropyridyl)-propylthio]-1,3,4-thiadiazole hydrochloride], the affinity, expressed as Ki, was 0.006 µM. Turning to `Nc1nnc(SCCCN2CCN(c3ccc(F)cc3)CC2)s1` [Example 1, 2-Amino-5-[3-(4-fluorophenylpiperazinyl)propylthio]-1,3,4-thiadiazole dihydrochloride], the Ki under setting [1] was 0.125 µM. On the same count and under the same terms, to `Cc1cccc(N2CCN(CCCSc3nnc(N)s3)CC2)c1` [Example 14, 2-Amino-5-[3-(4-(3-methylphenyl)piperazinyl)propylthio]-1,3,4-thiadiazole hydrochloride] belongs 0.036 µM. With `Nc1nnc(SCCN2CC=C(c3ccccc3)CC2)s1` [Example 3, 2-Amino-5-[2-(4-phenyl-1,2,3,6-tetrahydropyridyl)-ethylthio]-1,3,4-thiadiazole dihydrochloride], the Ki turned out to be 0.012 µM. For `CCCN(CCCSc1nnc(N)s1)CCc1ccccc1` [Example 9, 2-Amino-5-[3-(2-phenylethyl-n-propylamino)propylthio]-1,3,4-thiadiazole tartrate], the Ki under setting [1] turned out to be 0.045 µM.

`Nc1nnc(SCCN2CCC(c3ccccc3)CC2)s1` [Example 8, 2-Amino-5-[2-(4-phenylpiperidinyl)ethylthio]-1,3,4-thiadiazole hydrochloride]: the Ki under setting [1] was 0.045 µM.
